Positions count from the first letter of the chain named. Numbers in names are those of the source.
How the values were obtained:
Assay in all cases: [3H]choline uptake in transfected HEK293 cells
Type in all cases: cell-based
MeMfsd7c = molecular target: T1, MeMfsd7c (Oryzias latipes, UniProt H2LZ31); conditions: 100 µM choline, DMEM with 10% FBS, 37 °C, 1 h; labelled compound
T1 construct: gene flvcr2b
T1 sequence (H2LZ31 1-532): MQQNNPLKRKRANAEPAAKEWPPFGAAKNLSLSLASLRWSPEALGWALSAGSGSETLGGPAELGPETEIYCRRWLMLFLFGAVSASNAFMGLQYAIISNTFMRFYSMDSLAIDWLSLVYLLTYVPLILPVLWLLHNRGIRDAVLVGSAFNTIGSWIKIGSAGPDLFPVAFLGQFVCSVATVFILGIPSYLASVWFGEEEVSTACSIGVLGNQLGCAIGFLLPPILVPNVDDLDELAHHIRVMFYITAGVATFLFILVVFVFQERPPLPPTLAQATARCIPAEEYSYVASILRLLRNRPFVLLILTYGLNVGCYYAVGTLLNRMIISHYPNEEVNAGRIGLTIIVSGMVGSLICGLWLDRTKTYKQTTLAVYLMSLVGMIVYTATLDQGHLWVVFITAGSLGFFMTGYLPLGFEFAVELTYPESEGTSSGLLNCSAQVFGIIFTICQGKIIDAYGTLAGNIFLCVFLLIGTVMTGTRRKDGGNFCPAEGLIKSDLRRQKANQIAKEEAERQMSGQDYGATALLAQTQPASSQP

XeMfsd7c = molecular target: T2, XeMfsd7c (Xenopus tropicalis, UniProt Q28EC5); conditions: 100 µM choline, DMEM with 10% FBS, 37 °C, 1 h; labelled compound
T2 construct: gene flvcr2
T2 sequence (Q28EC5 1-494): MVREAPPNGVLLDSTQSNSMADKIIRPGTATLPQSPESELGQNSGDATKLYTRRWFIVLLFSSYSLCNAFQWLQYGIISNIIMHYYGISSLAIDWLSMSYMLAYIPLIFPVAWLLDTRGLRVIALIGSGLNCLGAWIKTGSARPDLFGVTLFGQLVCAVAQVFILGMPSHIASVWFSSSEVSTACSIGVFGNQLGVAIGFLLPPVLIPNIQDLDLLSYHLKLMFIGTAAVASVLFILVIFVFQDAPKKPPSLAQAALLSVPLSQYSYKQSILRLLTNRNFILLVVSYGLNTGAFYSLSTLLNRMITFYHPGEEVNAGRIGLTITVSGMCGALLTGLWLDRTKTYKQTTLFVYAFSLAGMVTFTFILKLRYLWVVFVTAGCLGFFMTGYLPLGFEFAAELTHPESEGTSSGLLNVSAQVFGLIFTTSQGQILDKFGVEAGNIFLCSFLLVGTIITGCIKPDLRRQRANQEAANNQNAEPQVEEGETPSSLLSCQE

DaMfsd7c_a = molecular target: T3, DaMfsd7c_a (Danio rerio, UniProt A0A0R4ILB2); conditions: 100 µM choline, DMEM with 10% FBS, 37 °C, 1 h; labelled compound
T3 construct: gene flvcr2a
T3 sequence (A0A0R4ILB2 1-470): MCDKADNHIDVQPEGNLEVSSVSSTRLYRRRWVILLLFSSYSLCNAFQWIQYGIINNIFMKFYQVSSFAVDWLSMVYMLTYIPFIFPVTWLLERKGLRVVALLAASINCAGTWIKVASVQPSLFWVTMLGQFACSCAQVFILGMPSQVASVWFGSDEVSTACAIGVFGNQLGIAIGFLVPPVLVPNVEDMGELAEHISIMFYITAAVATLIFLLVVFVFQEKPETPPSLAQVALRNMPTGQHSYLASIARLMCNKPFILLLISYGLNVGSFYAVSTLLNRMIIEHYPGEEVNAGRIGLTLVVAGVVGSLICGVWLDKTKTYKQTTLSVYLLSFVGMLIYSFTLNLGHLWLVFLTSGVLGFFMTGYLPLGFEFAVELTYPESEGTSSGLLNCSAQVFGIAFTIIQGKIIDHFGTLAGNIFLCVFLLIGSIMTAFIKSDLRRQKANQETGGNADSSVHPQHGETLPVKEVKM

DaMfsd7c_b = molecular target: T4, DaMfsd7c_b (Danio rerio, UniProt A0A8M9Q308); conditions: 100 µM choline, DMEM with 10% FBS, 37 °C, 1 h; labelled compound
T4 construct: gene flvcr2b
T4 sequence (A0A8M9Q308 1-485): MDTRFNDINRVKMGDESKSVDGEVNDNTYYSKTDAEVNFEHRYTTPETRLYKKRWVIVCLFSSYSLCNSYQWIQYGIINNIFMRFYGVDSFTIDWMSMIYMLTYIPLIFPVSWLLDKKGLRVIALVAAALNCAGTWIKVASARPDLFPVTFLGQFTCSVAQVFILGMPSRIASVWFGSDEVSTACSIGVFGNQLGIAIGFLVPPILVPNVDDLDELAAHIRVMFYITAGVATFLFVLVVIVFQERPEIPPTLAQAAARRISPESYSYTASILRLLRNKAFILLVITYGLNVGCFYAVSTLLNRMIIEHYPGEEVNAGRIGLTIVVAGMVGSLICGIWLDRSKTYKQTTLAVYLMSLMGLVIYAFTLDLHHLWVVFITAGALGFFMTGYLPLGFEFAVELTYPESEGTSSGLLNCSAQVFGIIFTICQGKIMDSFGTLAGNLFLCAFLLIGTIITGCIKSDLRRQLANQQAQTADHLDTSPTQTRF

[1] = substrate: C[N+](C)(C)CCO; conditions: co-expressed human choline kinase A (hChKA), DMEM with 10% FBS, 37 °C, 60 min, labelled compound
Description: [3H]choline uptake in transfected HEK293 cells on hMfsd7c (human MFSD7c, FLVCR2) | The kinetics (Km) and Vmax for choline import by human Mfsd7c under this condition

[2] = substrate: C[N+](C)(C)CCO; conditions: co-expressed human choline kinase A (hChKA), DMEM with 10% FBS, 37 °C, 60 min, labelled compound; remark: listed apart in the source
Description: [3H]choline uptake in transfected HEK293 cells on hMfsd7c (human MFSD7c, FLVCR2) | The Km and Vmax for importing choline by S203Y mutant under this condition were […]

With `C[N+](C)(C)CCO` [choline] the “[3H]choline uptake in transfected HEK293 cells” value (from here on “[3H]choline uptake”) (MeMfsd7c) was “these MFSD7c orthologs also exhibited choline transport activity”, the “[3H]choline uptake” value (XeMfsd7c) was “these MFSD7c orthologs also exhibited choline transport activity” and the “[3H]choline uptake” value (DaMfsd7c_a) was “these MFSD7c orthologs also exhibited choline transport activity”. The “[3H]choline uptake” value (DaMfsd7c_b) was “these MFSD7c orthologs also exhibited choline transport activity”.

B1: hMfsd7c (human MFSD7c, FLVCR2) (Homo sapiens) (protein)
chain: MVNEGPNQEESDDTPVPESALQADPSVSVHPSVSVHPSVSINPSVSVHPSSSAHPSALAQPSGLAHPSSSGPEDLSVIKVSRRRWAVVLVFSCYSMCNSFQWIQYGSINNIFMHFYGVSAFAIDWLSMCYMLTYIPLLLPVAWLLEKFGLRTIALTGSALNCLGAWVKLGSLKPHLFPVTVVGQLICSVAQVFILGMPSRIASVWFGANEVSTACSVAVFGNQLGIAIGFLVPPVLVPNIEDRDELAYHISIMFYIIGGVATLLLILVIIVFKEKPKYPPSRAQSLSYALTSPDASYLGSIARLFKNLNFVLLVITYGLNAGAFYALSTLLNRMVIWHYPGEEVNAGRIGLTIVIAGMLGAVISGIWLDRSKTYKETTLVVYIMTLVGMVVYTFTLNLGHLWVVFITAGTMGFFMTGYLPLGFEFAVELTYPESEGISSGLLNISAQVFGIIFTISQGQIIDNYGTKPGNIFLCVFLTLGAALTAFIKADLRRQKANKETLENKLQEEEEESNTSKVPTAVSEDHL
notes: full-length cDNA in pcDNA3.1, transiently expressed in HEK293 cells
With B1 the Km [1] was 100 µM.

B2: hMfsd7c (human MFSD7c, FLVCR2) (Homo sapiens; S203Y) (protein)
chain: B1 chain with S203Y
notes: as for B1
B2 showed a Km [2] of 1197 µM.

— paper PMC10907603, “MFSD7c functions as a transporter of choline at the blood–brain barrier” (Cell Research, 2024)
